Laboratory results taken from patent publication US10202371B2, “Oxazolidin-2-one-pyrimidine derivatives and the use thereof as phosphatidylinositol-3-kinase inhibitors” (Novartis AG, priority 2012, dated 2019).
pIC50: −log10 of the molar value.

How the values were obtained:
[1] = Photostability in light stability chamber; format: physicochemical; settings: 1.0 mg/ml in ethanol, 19620 kJ/m^2 over 13 h, 15° C., UPLC 254 nm
Protocol: Samples investigated for light stability were treated in a light stability chamber (Atlas CPS+, Serial Number 0704013). Solutions of 1.0 mg/ml in ethanol were prepared for each molecule and aliquots of 0.5 mL were dispensed into suitable micro tubes. All measurements were done in duplicate and compared to a reference wrapped in aluminium foil during light exposure. Solutions were exposed to 19620 kJ/m^2 over 13 h. Samples were kept at 15° C. during the experiment. […] The peak areas were automatically integrated, and the degradation percentage calculated as the difference between the corresponding peak area percentage of the reference sample and the average peak area percentage of the exposed samples (duplicate).

PI3Kgamma = PI3Kgamma (Homo sapiens (Human), UniProt P48736); assay: Biochemical assay PI3Kgamma (Adapta TR-FRET); settings: read-out: PI3Kg/IC50
PI3Kgamma, sequence (P48736 whole entry, species assumed): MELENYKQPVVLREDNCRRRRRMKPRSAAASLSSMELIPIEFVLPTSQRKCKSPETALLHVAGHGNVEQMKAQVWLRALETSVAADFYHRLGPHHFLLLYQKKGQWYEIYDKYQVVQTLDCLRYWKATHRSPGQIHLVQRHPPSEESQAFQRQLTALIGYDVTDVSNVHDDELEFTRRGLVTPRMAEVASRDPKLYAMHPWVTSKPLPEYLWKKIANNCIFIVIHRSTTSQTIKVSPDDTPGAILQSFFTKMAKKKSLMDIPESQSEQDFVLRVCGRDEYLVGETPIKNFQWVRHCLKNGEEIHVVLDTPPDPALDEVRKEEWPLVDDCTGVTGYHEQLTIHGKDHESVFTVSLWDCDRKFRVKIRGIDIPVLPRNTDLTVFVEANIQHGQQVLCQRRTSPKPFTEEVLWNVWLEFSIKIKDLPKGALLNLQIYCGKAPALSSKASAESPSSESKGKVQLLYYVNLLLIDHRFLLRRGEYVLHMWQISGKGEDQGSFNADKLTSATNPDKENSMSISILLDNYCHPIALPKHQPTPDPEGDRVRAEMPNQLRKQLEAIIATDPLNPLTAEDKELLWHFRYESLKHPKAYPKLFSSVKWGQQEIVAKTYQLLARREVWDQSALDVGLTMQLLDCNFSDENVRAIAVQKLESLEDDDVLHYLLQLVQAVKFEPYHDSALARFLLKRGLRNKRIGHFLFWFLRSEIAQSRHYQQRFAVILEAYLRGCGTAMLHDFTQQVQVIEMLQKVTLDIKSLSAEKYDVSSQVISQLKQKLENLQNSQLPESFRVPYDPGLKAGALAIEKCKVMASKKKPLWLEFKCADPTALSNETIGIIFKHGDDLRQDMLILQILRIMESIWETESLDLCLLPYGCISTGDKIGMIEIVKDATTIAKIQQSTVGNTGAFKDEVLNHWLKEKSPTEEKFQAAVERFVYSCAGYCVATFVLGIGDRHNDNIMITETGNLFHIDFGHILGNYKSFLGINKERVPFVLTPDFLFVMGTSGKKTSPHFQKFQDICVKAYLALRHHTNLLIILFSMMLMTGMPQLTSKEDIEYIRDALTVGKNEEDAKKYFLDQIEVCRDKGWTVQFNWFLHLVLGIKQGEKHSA
Text: The TR-FRET Adapta™ Universal Kinase Assay Kit was purchased from Invitrogen
Corporation (Carlsbad/CA, USA) (Cat. No. PV5099). The kit contains the following reagents: Adapta Eu-anti-ADP Antibody (Europium labeled anti-ADP antibody in HEPES buffered saline, Cat. No. PV5097), Alexa Fluor® 647-labeled ADP tracer (Alexa Fluor® 647-labeled ADP tracer in HEPES buffered saline, Cat. No. PV5098), proprietary TR-FRET dilution buffer pH 7.5 (Cat. No. PV3574).
PIK3CD substrate Phosphatidylinositol was obtained from Invitrogen (vesicules consisting of 2 mM PI in 50 mM HEPES pH7.5; Cat. No. PV5371).
Time-Resolved Fluorescence Resonance Energy Transfer (TR-FRET) is a technology based on energy transfer between two adjacent dyes, from an excited electron in one dye (the donor) to an electron of an adjacent dye (the acceptor) through resonance, then released as a photon. This energy transfer is detected by an increase in the fluorescence emission of the acceptor, and a decrease in the fluorescence emission of the donor. TR-FRET assays for protein kinases use a long-lifetime lanthanide Terbium or Europium chelates as the donor species which overcome interference from compound autofluorescence or light scatter from precipitated compounds, by introducing a delay after excitation by a flashlamp excitation source. Results are often expressed as a ratio of the intensities of the acceptor and donor fluorophores. The ratiometric nature of such a value corrects for differences in assay volumes between wells, as well as corrects for quenching effects due to colored compounds. The Adapta™ assay can be divided into two phases: a kinase reaction phase and an ADP detection phase. In the kinase reaction phase, all kinase reaction components are added to the well and the reaction is allowed to incubate for a set period of time specific for each kinase. After the reaction, a detection solution of Eu-labeled anti-ADP antibody, Alexa Fluor® 647-labeled ADP tracer, and EDTA (to stop the kinase reaction) are added to the assay well. ADP formed by the kinase reaction will displace the Alexa Fluor® 647-labeled ADP tracer from the antibody, resulting in a decrease in TR-FRET signal. In the presence of an inhibitor, the amount of ADP formed by the kinase reaction is reduced, and the resulting intact antibody-tracer interaction maintains a high TR-FRET signal. In the Adapta™ assay, the donor (Europium-anti-ADP antibody) is excited at 340 nm and will transfer its energy to the acceptor (Alexa Fluor® 647-labeled ADP tracer). The emission from the Alexa Fluor® 647 can be monitored with a filter centered at 665 nm because it is located between the emission peaks of the donor, which is measured at 615/620 nm.
50 nL of compound dilutions were dispensed onto white 384-well small volume polystyrene plate as described in section 2.2. Then 5 μL of PI3Kg and PI3Kd and lipid substrate (PI or PIP2:PS) followed by 5 μL of ATP (final assay volume 10 μL) are incubated at RT. The standard reaction buffer for the Adapta™ TR-FRET assay contained 10 mM Tris-HCl pH 7.5, 3 mM MgCl2, 50 mM NaCl, 1 mM DTT, 0.05% CHAPS. Reactions were stopped with 5 μL of a mixture of EDTA containing the Eu-labeled anti-ADP antibody and the Alexa Fluor® 647-labeled ADP tracer in TR-FRET dilution buffer (proprietary to IVG). Plates are read 15 to 60 mins later in a Synergy2 reader using an integration time of 0.4 seconds and a delay of 0.05 seconds. […] The standard compound NVP-BGT226 was used as a reference compound and included in all assay plates in the form of 16 dilution points in duplicate.
Data are analyzed using Excel fit software or Graphpad Prism. EC50 values were derived by fitting a sigmoidal dose-response curve to a plot of assay readout over inhibitor concentration. All fits were performed with the program XLfit4 (ID Business Solutions, Guildford, UK). […] All fits were performed with the program XLfit4 (ID Business Solutions, Guildford, UK).

human mTOR (GST-mTOR) = human mTOR (GST-mTOR) (Homo sapiens (Human), UniProt P42345); assay: Binding assay mTor (Lanthascreen kinase binding assay); settings: Tracer-314
Text: Catalytically active human PI3Kα, PI3Kβ, PI3Kδ, and mTOR were cloned, expressed and purtified as described (Maira S M, Stauffer F, Brueggen J, Furet P, Schnell C, Fritsch C, Brachmann S, Chène P, de Pover A, Schoemaker K, Fabbro D, Gabriel D, Simonen M, Murphy L, Finan P, Sellers W, Garcia-Echeverria C (2008), Mol Cancer Ther. 7:1851-63 and Maira S M, Pecchi S, Brueggen J, Huh K, Schnell C, Fritsch C, Nagel T, Wiesmann M, Brachmann S, Dorsch M, Chène P, Schoemaker K, De Pover A, Menezes D, Fabbro D, Sellers W, Garcia-Echeverria C, Voliva CF (2011), Mol. Cancer Ther. accepted).
TR-FRET assays for protein kinases uses a long-lifetime lanthanide Terbium or Europium chelates as the donor species which overcome interference by compound autofluorescence or light scatter from precipitated compounds, by introducing a delay after excitation by a flashlamp excitation source. Results are often expressed as a ratio of the intensities of the acceptor and donor fluorophores. The ratiometric nature of such a value corrects for differences in assay volumes between wells, as well as corrects for quenching effects due to colored compounds.
Binding Assays are based on the binding and displacement of an Alexa Fluor® 647-labeled, ATP-competitive kinase inhibitors to the kinase of interest. Invitrogen's “Kinase Tracers” have been developed to address a wide range of kinase targets and are based on ATP-competitive kinase inhibitors, making them suitable for detection of any compounds that bind to the ATP site or to an allosteric site altering the conformation of the ATP site. Inhibitors that bind the ATP site include both Type I kinase inhibitors, which bind solely to the ATP site, and Type II inhibitors (e.g., Gleevec®/Imatinib, Sorafenib, BIRB-796), which bind to both the ATP site and a hydrophobic site exposed in the DFG-out (non-active) conformation. […] The sole exception was a substrate-competitive compound, and thus not a true allosteric inhibitor.
In contrast to most fluorescence-based kinase activity assays, LanthaScreen® Eu^3+ Kinase Binding Assays can be read continuously, which facilitates evaluation of compounds with slow binding kinetics. Also, unlike most activity assays, binding assays can be performed using either active or non-activated kinase preparations, which enables characterization of compounds that bind preferentially to non-activated kinases, such as Gleevec®/imatinib and some allosteric inhibitors.
In the Lanthascreen™ kinase binding assay, the donor (Eu^3+-anti-GST antibody) is excited at 340 nm and will transfer its energy to the acceptor (Alexa Fluor® 647-labeled ATP-competitive kinase inhibitor=Tracer-314). The emission from the Tracer-314 (Alexa Fluor® 647 inhibitor) can be monitored with a filter centered at 665 nm because it is located between the emission peaks of the donor, which is measured at 615/620 nm. The binding of both, the Tracer-314 and Eu^3+-anti-GST antibody, to the kinase results in a high degree of FRET from the Eu^3+-donor fluorophore to the Alexa-Fluor® 647-acceptor fluorophore on the Tracer-314. Binding of an inhibitor to the kinase competes for binding with the tracer, resulting in a loss of FRET.
50 nL of compound dilutions were dispensed onto white 384-well small volume polystyrene plate as described in section 2.2. Then 5 μL of GST-mTOR and Europium-anti-GST antibody followed by 5 μL of tracer-314 (final assay volume 10 μL) are incubated at RT. The standard reaction buffer for the Lanthascreen™ kinase binding assay contained 50 mM HEPES pH 7.5, 5 mM MgCl2, 1 mM EGTA, 0.01% Pluronic F-127. Plates are read 60 mins later in a Synergy2 reader using an integration time of 0.2 microseconds and a delay of 0.1 microseconds.
To calculate the emission ratio, the signal emitted at 665 nm from the acceptor (Alexa Fluor® 647-labeled Tracer-314) is divided by the signal emitted at 620 nm from the donor (Eu^3+ anti-GST antibody) […]

| Structure (SMILES) | % degradation in photostability assay (average) [1] | pIC50 (PI3Kgamma) | pIC50 (human mTOR (GST-mTOR)) |
| --- | --- | --- | --- |
| CC[C@H]1[C@H](c2cccc(OC)c2)OC(=O)N1c1cc(-c2cnc(N)nc2C(F)(F)F)nc(N2CCOCC2)n1 [Example 6] | 0% | 5.15 | 5.33 |
| CC[C@H]1[C@@H](c2ccccc2)OC(=O)N1c1cc(-c2cnc(N)nc2C(F)(F)F)nc(N2CCOCC2)n1 [Example 4] | – | 5.35 | – |
